From patent publication US6451856B1, “Carnitine supplemented diets for gestating and lactating swine” (Lonza Inc., priority 1996, dated 2002)

Key:
Format in all cases: in vivo, swine
[1] = test system: sows (PIC Line C-15x326); test: Effects of L-carnitine on subsequent reproductive performance (second reproductive cycle, no carnitine); conditions: for Days to estrus / Farrowing rate / Number born live / Number total born: first-cycle 50 ppm L-carnitine; for Farrowing rate / Number born live / Number total born: second cycle
Protocol: The effect of carnitine on subsequent reproductive performance was also measured. Sows fed diets described above were continued to be monitored during the subsequent, i.e., second cycle of reproduction. The sow diets were not supplemented with carnitine during the second cycle of reproduction to determine if carnitine had any residual effect. The total number of pigs born and the number of pigs born alive were determined. Referring to Table 5, feeding carnitine in the first reproductive cycle increased the total number of born pigs and the number of pigs born alive in the second reproductive cycle.

[2] = test system: sows (PIC Line C-15x326); test: Sow plasma analysis for insulin and IGF-I
Protocol: Sows were bled at day 10, 60, 90 and 110 of gestation and at weaning. Plasma samples were analyzed for concentration of free and total carnitine, insulin, and insulin-like growth factor I (IGF-I). The data were analyzed by analysis of variance using GLM procedure of SAS (1988).

[3] = test system: sows (PIC Line C-15x326); test: Effect of L-carnitine fed during gestation, lactation or both on sow and litter performance; conditions: for Litter birth weight / Litter weight at weaning / Litter weight gain / Pig birth weight / Pig wean weight / Pig weight gain / Survivability: 50 ppm L-carnitine in diet; for Pigs weaned per litter / Average daily feed intake, overall / Average daily feed intake, wk 1 / Average daily feed intake, wk 2: 50 ppm L-carnitine; for Pigs weaned per litter: pigs per litter on day 2 as covariate; for Average daily feed intake, overall / Average daily feed intake, wk 1 / Average daily feed intake, wk 2: sow lactation feed intake
Description: A total of 307 sows (PIC Line C-15x326) were used to determine the effect of feeding 50 ppm L-carnitine on the sow and litter performance. Sows were randomly assigned to either control or test dietary treatments. The three test treatments were designated as follows: (i) control/carnitine (in which carnitine was supplemented only during the period of lactation); (ii) carnitine/control (in which carnitine was supplemented only during the period of gestation) and (iii) carnitine/carnitine (in which carnitine was supplemented during the periods of both gestation and lactation).
A gestation diet was formulated to contain nutrients in excess of NRC (1988) estimates, and included 79.51% milo; 15.22% soybean meal (46.5% CP); 2.51% monocalcium phosphate; 1.11% limestone; 0.5% sodium chloride; 0.25% sow premix; 0.25% vitamin premix; and 0.15% trace element premix. This diet contained 0.65% total lysine, 0.95% Ca and 0.85% P. Experimental gestation diet contained 50 ppm L-carnitine. Sows were fed 4 lb of diet/day once a day until farrowing. Sows were weighed and last rib fat debt was recorded at day 110 of gestation. At farrowing, a number of pigs born live, stillborn, and mummies were recorded. Individual pig weight and litter weight were also recorded. Within 48 hours from farrowing, litters were equalized within dietary treatment.
A lactation diet was formulated to contain nutrients in excess of NRC (1988) estimates, and included 62.91% milo; 28.41% soybean meal (46.5% CP); 4% soybean oil; 2.33% monocalcium phosphate; 1.12% limestone; 0.5% sodium chloride; 0.25% sow premix; 0.25% vitamin premix; 0.15% trace element premix; 0.05% vitamin E and 0.02% DL-Methionine. This diet contained 1.0% total lysine, 0.95% Ca and 0.85% P. Experimental lactation diet contained 50 ppm L-carnitine. The sows were allowed ad libitum access to feed. Feed intake was measured weekly. Pigs were weighed at weaning to determine pig and litter weight. Sows were ultrasonically scanned for last rib fat debt at weaning.
The data were analyzed by analysis of variance using GLM procedure of SAS (1988).

[4] = carnitine fed in the first reproductive cycle, none in the second
[5] = gestation and lactation (carnitine/carnitine)
[6] = gestation only (carnitine/control)
[7] = lactation only (control/carnitine)
[8] = gestation only (carnitine/control), listed as Carnitine

Q: For C[N+](C)(C)C[C@H](O)CC(=O)[O-] [L-carnitine], which “number of pigs born alive in the second reproductive cycle” value [1, 4] is on record?
A: increased

Q: And the “total number of born pigs in the second reproductive cycle” value [1, 4]?
A: increased

Q: What about the Days to estrus [1, 5] of the same molecule?
A: 5.37 days

Q: What about the Days to estrus [1, 6] of the same molecule?
A: 6.11 days

Q: And the Days to estrus [1, 7]?
A: 5.82 days

Q: What about the Farrowing rate [1, 5] of the same molecule?
A: 93.2%

Q: And the Number born live [1, 5]?
A: 12.03

Q: And the Number total born [1, 5]?
A: 12.85

Q: What about the Farrowing rate [1, 6] of the same molecule?
A: 86.5%

Q: And the Number born live [1, 6]?
A: 11.17

Q: And the Number total born [1, 6]?
A: 11.97

Q: What about the Farrowing rate [1, 7] of the same molecule?
A: 96.3%

Q: And the Number born live [1, 7]?
A: 11.22

Q: And the Number total born [1, 7]?
A: 12.26

Q: What about the “insulin levels in the plasma of sows” value ([2]; days 10 and 60 of gestation, P<0.07) of the same molecule?
A: tended to increase

Q: What about the “IGF-I concentration in sow plasma” value ([2]; gestation days 60 and 90) of the same molecule?
A: tended to increase

Q: What about the Litter birth weight [3, 5] of the same molecule?
A: 34.49 lb

Q: And the “Litter weight at weaning” value [3, 5]?
A: 99.03 lb

Q: And the Litter weight gain [3, 5]?
A: 64.25 lb

Q: And the Pig birth weight [3, 5]?
A: 3.53 lb

Q: What about the Pig wean weight [3, 5] of the same molecule?
A: 10.99 lb

Q: And the Pig weight gain [3, 5]?
A: 7.45 lb

Q: What about the Survivability [3, 5] of the same molecule?
A: 90.45%

Q: And the Litter birth weight [3, 6]?
A: increased

Q: What about the “Litter weight at weaning” value [3, 6] of the same molecule?
A: increased

Q: What about the Litter weight gain [3, 6] of the same molecule?
A: increased

Q: What about the Pig birth weight [3, 6] of the same molecule?
A: increased

Q: And the Pig wean weight [3, 6]?
A: increased

Q: And the Pig weight gain [3, 6]?
A: increased

Q: And the Survivability [3, 6]?
A: 86.87%

Q: And the Litter birth weight [3, 8]?
A: 34.46 lb

Q: And the “Litter weight at weaning” value [3, 8]?
A: 97.69 lb

Q: And the Litter weight gain [3, 8]?
A: 62.83 lb

Q: What about the Pig birth weight [3, 8] of the same molecule?
A: 3.45 lb

Q: What about the Pig wean weight [3, 8] of the same molecule?
A: 10.94 lb

Q: What about the Pig weight gain [3, 8] of the same molecule?
A: 7.52 lb

Q: What about the Litter birth weight [3, 7] of the same molecule?
A: 32.73 lb

Q: And the “Litter weight at weaning” value [3, 7]?
A: 91.91 lb

Q: And the Litter weight gain [3, 7]?
A: 58.59 lb

Q: What about the Pig birth weight [3, 7] of the same molecule?
A: 3.32 lb

Q: What about the Pig wean weight [3, 7] of the same molecule?
A: 10.38 lb

Q: What about the Pig weight gain [3, 7] of the same molecule?
A: 7.11 lb

Q: What about the Survivability [3, 7] of the same molecule?
A: 86.08%

Q: What about the “Pigs weaned per litter” value [3, 5] of the same molecule?
A: 9.00

Q: What about the “Pigs weaned per litter” value [3, 6] of the same molecule?
A: 9.02

Q: And the “Pigs weaned per litter” value [3, 7]?
A: 8.89

Q: What about the “sow weight at weaning” value ([3]; L-carnitine during gestation only, control 493, P<0.01) of the same molecule?
A: 511 lb

Q: What about the “sow weight at weaning” value ([3]; carnitine during both gestation and lactation, control 493 lb) of the same molecule?
A: 524 lb

Q: And the “sow or litter performance” value ([3]; carnitine during the period of lactation only, versus control)?
A: no differences were observed

Q: What about the “number of stillborn pigs per litter” value ([3]; carnitine-supplemented diet during gestation only, control 0.76, P<0.02) of the same molecule?
A: 0.49 stillborn pigs/litter

Q: And the “Average daily feed intake, overall” value [3, 5]?
A: 13.58 lb

Q: What about the “Average daily feed intake, wk 1” value [3, 5] of the same molecule?
A: 11.88 lb

Q: And the “Average daily feed intake, wk 2” value [3, 5]?
A: 14.87 lb

Q: And the “Average daily feed intake, overall” value [3, 6]?
A: 13.16 lb

Q: What about the “Average daily feed intake, wk 1” value [3, 6] of the same molecule?
A: 11.52 lb

Q: And the “Average daily feed intake, wk 2” value [3, 6]?
A: 14.70 lb

Q: And the “Average daily feed intake, overall” value [3, 7]?
A: 13.01 lb

Q: And the “Average daily feed intake, wk 1” value [3, 7]?
A: 11.55 lb

Q: And the “Average daily feed intake, wk 2” value [3, 7]?
A: 14.41 lb
